Results from patent US11293863B2, “Robust interferometer and methods of using same” (Vanderbilt University, priority 2015, dated 2022).

Key:
[1] = system: FAAH in small unilamellar vesicles; CXCR4 receptor; GABAB receptor in CHO cell membranes; experiment: BSI label-free free-solution binding assays on membrane proteins (negative controls); conditions: negative control compound, even the highest concentrations
Source text: Membrane-associated proteins and their interactions are of paramount interest in the design of clinical therapeutics, accounting for almost 70% of existing drug candidate targets (Krummel and Davis (2002) Current Opinion in Immunology 14: 66-74; Overington et al. (2006) Nature Reviews Drug Discovery 5: 993-996). To date, it has been difficult to perform direct binding assays on cellular membranes except by down-stream signal transduction or the use of isotope labeling methods. BSI facilitated label-free, free solution binding assays on proteoliposomes (Bracey et al. (2002) Science 298: 1793-1796; Jass et al. (2000) Biophysical Journal 79: 3153-3163) from full-length, functional membrane proteins, from both natural and recombinant sources (Kussrow et al. (2010) Chembiochem DOI: 10.1002/cbic.201000671). […]

[2] = target: lectin Concanavalin A (ConA) (Canavalia ensiformis, UniProt P02866); conditions: non-binding sugar used as control, free-solution BSI with ConA; cited from earlier work

In the case of `C[C@H](N)C(=O)O` [L-alanine], the BSI signal [1] was “Little or no BSI signal”.

For `CC(C)CCC[C@@H](C)[C@H]1CC[C@H]2[C@@H]3CC=C4C[C@@H](O)CC[C@]4(C)[C@H]3CC[C@]12C` [cholesterol], the BSI signal [1] was “Little or no BSI signal”.

For `O=C[C@H](O)[C@@H](O)[C@@H](O)[C@H](O)CO` [galactose], the BSI binding signal [2] is listed as “no binding signal”.
